Data reported in ChEMBL document CHEMBL2375331, “Daphnane-type diterpenes with inhibitory activities against human cancer cell lines from Daphne genkwa” (Bioorg Med Chem Lett, 2013).

Columns and labels:
Format in all cases: functional, cell-based
[1] = tested on: K562; experiment: Cytotoxicity against human K562 cells after 48 hrs by MTT assay; details: K562, 48 h
[2] = tested on: U-937; experiment: Cytotoxicity against human U937 cells after 48 hrs by MTT assay; details: U-937, 48 h
[3] = tested on: HL-60; experiment: Cytotoxicity against human HL60 cells after 48 hrs by MTT assay; details: HL-60, 48 h
[4] = Cytotoxicity against human A375-S2 cells after 48 hrs by MTT assay; details: A375-S2, 48 h
[5] = tested on: HT-1080; experiment: Cytotoxicity against human HT1080 cells after 48 hrs by MTT assay; details: HT-1080, 48 h
[6] = tested on: HCT-116; experiment: Cytotoxicity against human HCT116 cells after 48 hrs by MTT assay; details: HCT-116, 48 h
[7] = tested on: A549; experiment: Cytotoxicity against human A549 cells after 48 hrs by MTT assay; details: A549, 48 h
[8] = tested on: HepG2; experiment: Cytotoxicity against human HepG2 cells after 48 hrs by MTT assay; details: HepG2, 48 h
[9] = tested on: HeLa; experiment: Cytotoxicity against human HeLa cells after 48 hrs by MTT assay
[10] = tested on: MCF7; experiment: Cytotoxicity against human MCF7 cells after 48 hrs by MTT assay; details: MCF7, 48 h

## C=C(C)[C@@]1(O)[C@H](OC(=O)/C=C/C=C/CCCCC)[C@@H]2[C@@H]3O[C@]3(CO)[C@@H](O)[C@]3(O)C(=O)C(C)=C[C@H]3[C@@]2(O)[C@H](C)[C@H]1OC(=O)c1ccccc1 [YUANHUAOATE E]
[1]
  IC50: 29 µM
[2]
  IC50: 11.6 µM
[3]
  IC50: 18.5 µM
[4]
  IC50: 26.5 µM
[5]
  IC50: 18.4 µM
[6]
  IC50: 16.4 µM
[7]
  IC50: 13.3 µM
[8]
  IC50: 11.1 µM
[9]
  IC50: 16.7 µM
[10]
  IC50: > 50 µM

## C=C(C)[C@@]12O[C@@]3(/C=C/C=C/CCCCC)O[C@@H]1[C@@H]1[C@@H]4O[C@]4(CO)[C@@H](O)[C@]4(O)C(=O)C(C)=C[C@H]4[C@@]1(O3)[C@H](C)[C@H]2OC(=O)c1ccccc1 [GNIDILATIDIN]
[1]
  IC50: 16.1 µM
[2]
  IC50: 11.8 µM
[3]
  IC50: 26.8 µM
[4]
  IC50: 8.72 µM
[5]
  IC50: 2.02 µM
[6]
  IC50: 23 µM
[7]
  IC50: 13.1 µM
[8]
  IC50: 8.04 µM
[9]
  IC50: 5.56 µM
[10]
  IC50: 2.39 µM

## C=C(C)[C@]12C[C@@H](C)[C@@]34OC(c5ccccc5)(OC1[C@@H]3[C@@H]1O[C@]1(COC(=O)c1ccccc1)[C@@H](O)[C@@]1(O)[C@H]4C[C@H](C)[C@@H]1O)O2
[1]
  IC50: 20.2 µM
[2]
  IC50: 18.1 µM
[3]
  IC50: 30.9 µM
[4]
  IC50: 3.62 µM
[5]
  IC50: < 0.1 µM
[6]
  IC50: 28.1 µM
[7]
  IC50: 23.4 µM
[8]
  IC50: 29.9 µM
[9]
  IC50: 20.2 µM
[10]
  IC50: 25.3 µM

## C=C(C)[C@@]12O[C@@]3(/C=C/C=C/CCCCC)O[C@@H]1[C@@H]1[C@@H]4O[C@]4(CO)[C@@H](O)[C@]4(O)C(=O)C(C)=C[C@H]4[C@@]1(O3)[C@H](C)[C@H]2OC(C)=O [YUANHUADINE]
[1]
  IC50: 22.2 µM
[2]
  IC50: 14.7 µM
[3]
  IC50: 30.1 µM
[4]
  IC50: 15.8 µM
[5]
  IC50: < 0.1 µM
[6]
  IC50: 32.6 µM
[7]
  IC50: > 50 µM
[8]
  IC50: 26.3 µM
[9]
  IC50: 17.1 µM
[10]
  IC50: 4.11 µM

## C=C(C)[C@@]12O[C@@]3(c4ccccc4)O[C@@H]1[C@@H]1[C@@H]4O[C@]4(CO)[C@@H](O)[C@]4(O)C(=O)[C@@H](C)C[C@H]4[C@@]1(O3)[C@H](C)[C@H]2OC(C)=O
[1]
  IC50: > 50 µM
[2]
  IC50: > 50 µM
[3]
  IC50: > 50 µM
[4]
  IC50: 14.2 µM
[5]
  IC50: < 0.1 µM
[6]
  IC50: > 50 µM
[7]
  IC50: > 50 µM
[8]
  IC50: > 50 µM
[9]
  IC50: 50 µM
[10]
  IC50: 23.6 µM

## C=C(C)[C@@]12OC3(/C=C/C=C/CCCCC)O[C@@H]1[C@@H]1[C@@H]4O[C@]4(CO)[C@@H](O)[C@]4(O)C(=O)C(C)=C[C@H]4[C@@]1(O3)[C@H](C)[C@H]2OC(=O)C(C)C
[1]
  IC50: 5.11 µM
[2]
  IC50: 27.6 µM
[3]
  IC50: 30 µM
[4]
  IC50: 24.9 µM
[5]
  IC50: 4.55 µM
[6]
  IC50: 25.2 µM
[7]
  IC50: 23.1 µM
[8]
  IC50: 17.8 µM
[9]
  IC50: > 50 µM
[10]
  IC50: 20.8 µM

## C=C(C)[C@]12C[C@@H](C)[C@@]34OC5(CCCCCCC[C@H](C)[C@H]6[C@H](C)[C@H](OC(=O)c7ccccc7)[C@@](O)([C@H](O)[C@@]7(CO)O[C@H]7[C@H]3[C@H]1O5)[C@@H]64)O2 [PIMELEA FACTOR P2]
[1]
  IC50: 25.2 µM
[2]
  IC50: 16.7 µM
[3]
  IC50: 17.9 µM
[4]
  IC50: 25.7 µM
[5]
  IC50: 13.2 µM
[6]
  IC50: 19.6 µM
[7]
  IC50: 17 µM
[8]
  IC50: 19.1 µM
[9]
  IC50: 18.3 µM
[10]
  IC50: > 50 µM

## C=C(C)[C@]12C[C@@H](C)[C@@]34O[C@@]5(CCCCCCC[C@@H](C)[C@H]6[C@H](C)[C@H](O)[C@@](O)([C@H](O)[C@@]7(COC(=O)c8ccccc8)O[C@H]7[C@H]3[C@H]1O5)[C@@H]64)O2
[1]
  IC50: 18.7 µM
[2]
  IC50: 16.5 µM
[3]
  IC50: 18.1 µM
[4]
  IC50: 29.4 µM
[5]
  IC50: 9.56 µM
[6]
  IC50: 28.9 µM
[7]
  IC50: 18.8 µM
[8]
  IC50: 11.3 µM
[9]
  IC50: > 50 µM
[10]
  IC50: 19.9 µM

## C=C(C)[C@]12C[C@@H](C)[C@]34OC5(CCCCCCC[C@@H](C)[C@@H]6[C@@H]3[C@]3(O[C@]6(C)OC3=O)[C@H](O)[C@@]3(CO)O[C@H]3[C@H]4[C@H]1O5)O2
[1]
  IC50: 26.3 µM
[2]
  IC50: 22.9 µM
[3]
  IC50: 34.1 µM
[4]
  IC50: 23 µM
[5]
  IC50: 20.8 µM
[6]
  IC50: 26.5 µM
[7]
  IC50: > 50 µM
[8]
  IC50: 25.2 µM
[9]
  IC50: 23.2 µM
[10]
  IC50: 7.36 µM

## C=C(C)[C@]12C[C@@H](C)[C@@]34OC5(CCCCCCC[C@@H](C)[C@H]6[C@H](C)[C@H](O)[C@@](O)([C@H](O)[C@@](O)(COC(=O)c7ccccc7)[C@@H](O)[C@H]3[C@H]1O5)[C@@H]64)O2
[1]
  IC50: > 50 µM
[2]
  IC50: > 50 µM
[3]
  IC50: > 50 µM
[4]
  IC50: 28.6 µM
[5]
  IC50: 7.71 µM
[6]
  IC50: > 50 µM
[7]
  IC50: 45 µM
[8]
  IC50: 28.6 µM
[9]
  IC50: 25.2 µM
[10]
  IC50: > 50 µM
